Assays:
[1] = system: Ovarian cancer cell lines; test: NCI in vitro anticancer screen, ovarian panel; assay type: cell-based, human; settings: average of six to nine cell lines; for GI50: Homo sapiens, read-out: Log GI50 (concentration in mol/L causing 50% growth inhibition) (converted)
Method: (§1) Compounds described herein were evaluated for in vitro anticancer activity. Particularly the 6a, 6b, 6d, 6h, 8a and 8b compounds were evaluated for in vitro anticancer activity against sixty human tumor cells derived from nine cancer types (leukemia, non-small-cell lung, colon, […], ovarian, prostate, and breast cancer) as shown in (Table 2 and 3). For the compound, dose response curves for each cell line were measured at a minimum of five concentrations at 10 fold dilutions. A protocol of 48 h continuous drug exposure was used and a sulforhodamine B (SRB) protein assay was used to estimate cell viability or growth. The concentration causing 50% cell growth inhibition (GI50), total cell growth inhibition (TGI 0% growth) and 50% cell death (LC50, −50% growth) compared with the control was calculated.

[2] = system: Prostate cancer cell lines; test: NCI in vitro anticancer screen, prostate panel; assay type: cell-based, human; settings: average of six to nine cell lines; for GI50: Homo sapiens, read-out: Log GI50 (concentration in mol/L causing 50% growth inhibition) (converted)
Method: as §1

CNS cancer cell lines = test: NCI in vitro anticancer screen, CNS panel; assay type: cell-based, human; settings: average of six to nine cell lines; for GI50: Homo sapiens, read-out: Log GI50 (concentration in mol/L causing 50% growth inhibition) (converted)
Method: as §1

[3] = system: duplex-form calf thymus DNA (CT-DNA); test: Thermal denaturation studies with CT-DNA; assay type: binding; settings: [BPD]:[DNA] molar ratio 1:5, CT-DNA 100 μM, ligand 20 μM, pH 7.00
Method: Compounds were subjected to thermal denaturation studies with duplex-form calf thymus DNA (CT-DNA). Working solutions in aqueous buffer (10 mM NaH2PO4/Na2HPO4, 1 mM Na2EDTA, pH 7.00+0.01) containing CT-DNA (100 μm in phosphate) and the BPD (20 μm) were prepared by addition of concentrated BPD solutions in DMSO to obtain a fixed [BPD]/[DNA] molar ratio of 1:5. The DNA-BPD solutions were incubated at 37° C. for 0, 18, and 36 h prior to analysis. Samples were monitored at 260 nm using a Beckman DU-7400 spectrophotometer fitted with high performance temperature controller, and heating was applied at 1° C. min-1 in the 40-90° C. range. DNA helix coil transition temperatures (Tm) were obtained from the maxima in the (dA260)/dT derivative plots. Results are given as the mean±standard deviation from three determinations and are corrected for the effects of DMSO co-solvent using a linear correction term. Drug-induced alterations in DNA melting behavior are given by: ΔTm=Tm(DNA+BPD)−Tm(DNA alone), where the Tm value for the BPD-free CT-DNA is 69.0±0.01.

Breast cancer cell lines = test: NCI in vitro anticancer screen, breast panel; assay type: cell-based, human; settings: average of six to nine cell lines; for GI50: Homo sapiens, read-out: Log GI50 (concentration in mol/L causing 50% growth inhibition) (converted)
Method: as §1

Colon cancer cell lines = test: NCI in vitro anticancer screen, colon panel; assay type: cell-based, human; settings: average of six to nine cell lines; for GI50: Homo sapiens, read-out: Log GI50 (concentration in mol/L causing 50% growth inhibition) (converted)
Method: as §1

[4] = system: sixty human tumor cells derived from nine cancer types; test: NCI in vitro anticancer screen, 48 h exposure, SRB assay, mean over all lines; assay type: cell-based; settings: for Log10LC50 mean graph midpoint (MG_MID) / Log10GI50 mean graph midpoint (MG_MID) / Log10TGI mean graph midpoint (MG_MID): human tumor cell lines, 48 h exposure; for Log10LC50 mean graph midpoint (MG_MID): 50% cell death; for Log10GI50 mean graph midpoint (MG_MID): 50% cell growth inhibition; for Log10TGI mean graph midpoint (MG_MID): total cell growth inhibition; for GI50: Homo sapiens, wide spectrum of activity against sixty cell lines in nine cell panels
Method: as §1

[5] = system: Melanoma cancer cell lines; test: NCI in vitro anticancer screen, melanoma panel; assay type: cell-based, human; settings: average of six to nine cell lines; for GI50: Homo sapiens, read-out: Log GI50 (concentration in mol/L causing 50% growth inhibition) (converted)
Method: as §1

[6] = system: Nonsmall-cell-lung cancer cell lines; test: NCI in vitro anticancer screen, non-small-cell lung panel; assay type: cell-based, human; settings: average of six to nine cell lines; for GI50: Homo sapiens, read-out: Log GI50 (concentration in mol/L causing 50% growth inhibition) (converted)
Method: as §1

[7] = system: Leukemia cancer cell lines; test: NCI in vitro anticancer screen, leukemia panel; assay type: cell-based, human; settings: average of six to nine cell lines; for GI50: Homo sapiens, read-out: Log GI50 (concentration in mol/L causing 50% growth inhibition) (converted)
Method: as §1

Renal cancer cell lines = test: NCI in vitro anticancer screen, renal panel; assay type: cell-based, human; settings: average of six to nine cell lines; for GI50: Homo sapiens, read-out: Log GI50 (concentration in mol/L causing 50% growth inhibition) (converted)
Method: as §1

[8] = system: human cancer cell lines of colon (Colo205), lung (Hop-62), cervix (SiHa), prostate (DU145, PC3), oral (DWD, HT1080), and breast (MCF7, Zr-75-1) origin; test: In vitro evaluation of cytotoxic activity in selected human cancer cell lines, 48 h exposure; assay type: cell-based; settings: 48 h continuous drug exposure
Method: In vitro evaluation of cytotoxic activity. Compounds 6a, 6b, 6d, 6e, 8a and 8b were evaluated for in vitro anticancer activity against nine human tumor cells derived from six cancer types (colon, prostate, oral, lung, cervix and breast cancer) as shown in Table 2. […] Compounds 6a, 6b, 6d, 6e, 8a and 8b have been evaluated for their in vitro cytotoxicity in selected human cancer cell lines of colon (Colo205), lung (Hop-62), cervix (SiHa), prostate (DU145, PC3), oral (DWD, HT1080), and breast (MCF7, Zr-75-1) origin. A protocol of 48 h continuous drug exposure has been used and an […] has been used to estimate cell viability or growth. The results are expressed as percent of cell growth determined relative to that of untreated control cells

## O=C(CN1CCN(c2ncccn2)CC1)Nc1ccc(Cl)cc1C(=O)c1ccccc1Cl [Compound 6b, N1-[4-chloro-2-(2-chlorobenzoyl)phenyl]-2-[4-(2-pyrimidinyl)piperazino]acetamide]
[1]
  GI50: 5.75 µM
[2]
  GI50: 16.6 µM
CNS cancer cell lines
  GI50: 5.89 µM
[3]
  ΔTm after incubation at 37° C. for 0 h: 1.5 °C
  ΔTm after incubation at 37° C. for 18 h: 2.1 °C
  ΔTm after incubation at 37° C. for 36 h: 2.6 °C
Breast cancer cell lines
  GI50: 6.76 µM
Colon cancer cell lines
  GI50: 2.14 µM
[4]
  Log10LC50 mean graph midpoint (MG_MID): −5.73
  Log10GI50 mean graph midpoint (MG_MID): −6.57
  Log10TGI mean graph midpoint (MG_MID): −6.89
[5]
  GI50: 1.78 µM
[6]
  GI50: 3.63 µM
[7]
  GI50: 5.5 µM
Renal cancer cell lines
  GI50: 5.62 µM

## CC(C)(C)c1cn2cccc(C(=O)N3CCN(CC(=O)Nc4ccc(Cl)cc4C(=O)c4ccccc4Cl)CC3)c2n1 [Compound 6e]
[1]
  GI50: 3.55 µM
[2]
  GI50: 1.35 µM
[8]
  cytotoxicity against some cancer cell lines: promising cytotoxicity
CNS cancer cell lines
  GI50: 1.41 µM
[3]
  ΔTm after incubation at 37° C. for 0 h: 1.9 °C
  ΔTm after incubation at 37° C. for 18 h: 2.3 °C
  ΔTm after incubation at 37° C. for 36 h: 2.8 °C
Breast cancer cell lines
  GI50: 2.14 µM
Colon cancer cell lines
  GI50: 0.589 µM
[4]
  Log10LC50 mean graph midpoint (MG_MID): −5.39
  Log10GI50 mean graph midpoint (MG_MID): −5.93
  Log10TGI mean graph midpoint (MG_MID): −6.28
[5]
  GI50: 3.47 µM
[6]
  GI50: 0.661 µM
[7]
  GI50: 0.851 µM
Renal cancer cell lines
  GI50: 1.05 µM

## O=C(CN1CCN(CCCN2CCN(CC(=O)Nc3ccc(Cl)cc3C(=O)c3ccccc3Cl)CC2)CC1)Nc1ccc(Cl)cc1C(=O)c1ccccc1Cl [Compound 6g]
[3]
  ΔTm after incubation at 37° C. for 0 h: 1.6 °C
  ΔTm after incubation at 37° C. for 18 h: 2.6 °C
  ΔTm after incubation at 37° C. for 36 h: 2.9 °C

## COc1cc2c(cc1O)N=CC1CCCN1C2=O (stereo not drawn) [DC-81, reference compound]
[3]
  ΔTm after incubation at 37° C. for 0 h: 0.3 °C
  ΔTm after incubation at 37° C. for 18 h: 0.7 °C

## O=C(CN1CCN(CCCOc2oc3ccccc3c(=O)c2-c2ccccc2)CC1)Nc1ccc(Cl)cc1C(=O)c1ccccc1Cl [Compound 8a]
[1]
  Log GI50 (concentration in mol/L causing 50% growth inhibition): −5.80 mol/L
[2]
  Log GI50 (concentration in mol/L causing 50% growth inhibition): −5.56 mol/L
[8]
  cytotoxicity against some cancer cell lines: promising cytotoxicity
CNS cancer cell lines
  Log GI50 (concentration in mol/L causing 50% growth inhibition): −5.69 mol/L
[3]
  ΔTm after incubation at 37° C. for 0 h: 1.4 °C
  ΔTm after incubation at 37° C. for 18 h: 2.1 °C
  ΔTm after incubation at 37° C. for 36 h: 2.1 °C
Breast cancer cell lines
  Log GI50 (concentration in mol/L causing 50% growth inhibition): −5.70 mol/L
Colon cancer cell lines
  Log GI50 (concentration in mol/L causing 50% growth inhibition): −5.75 mol/L
[4]
  Log10LC50 mean graph midpoint (MG_MID): −5.32
  Log10GI50 mean graph midpoint (MG_MID): −6.19
  Log10TGI mean graph midpoint (MG_MID): −6.33
[5]
  Log GI50 (concentration in mol/L causing 50% growth inhibition): −5.79 mol/L
[6]
  Log GI50 (concentration in mol/L causing 50% growth inhibition): −5.75 mol/L
[7]
  Log GI50 (concentration in mol/L causing 50% growth inhibition): −6.11 mol/L
Renal cancer cell lines
  Log GI50 (concentration in mol/L causing 50% growth inhibition): −5.71 mol/L

## O=C(CN1CCN(c2ccccn2)CC1)Nc1ccc(Cl)cc1C(=O)c1ccccc1Cl [Compound 6a, N1-[4-chloro-2-(2-chlorobenzoyl)phenyl]-2-[4-(2-pyridyl)piperazino]acetamide]
[1]
  GI50: 6.76 µM
[2]
  GI50: 1.78 µM
[8]
  cytotoxicity against some cancer cell lines: promising cytotoxicity
CNS cancer cell lines
  GI50: 5.62 µM
[3]
  ΔTm after incubation at 37° C. for 0 h: 1.2 °C
  ΔTm after incubation at 37° C. for 18 h: 1.7 °C
  ΔTm after incubation at 37° C. for 36 h: 2.2 °C
Breast cancer cell lines
  GI50: 3.89 µM
Colon cancer cell lines
  GI50: 5.75 µM
[4]
  GI50: < 20 µM
  Log10LC50 mean graph midpoint (MG_MID): −4.35
  Log10GI50 mean graph midpoint (MG_MID): −6.51
  Log10TGI mean graph midpoint (MG_MID): −6.54
[5]
  GI50: 1.29 µM
[6]
  GI50: 2.51 µM
[7]
  GI50: 3.55 µM
Renal cancer cell lines
  GI50: 1.55 µM

## O=C(c1ccccc1)c1cc(Cl)ccc1OCCCCN1CCN(CCCCOc2ccc(Cl)cc2C(=O)c2ccccc2)CC1 [Compound 8b]
[1]
  GI50: 5.75 µM
[2]
  GI50: 3.16 µM
CNS cancer cell lines
  GI50: 4.17 µM
[3]
  ΔTm after incubation at 37° C. for 0 h: 1.6 °C
  ΔTm after incubation at 37° C. for 18 h: 2.6 °C
  ΔTm after incubation at 37° C. for 36 h: 2.9 °C
Breast cancer cell lines
  GI50: 3.47 µM
[4]
  GI50: < 20 µM
  Log10LC50 mean graph midpoint (MG_MID): −5.25
  Log10GI50 mean graph midpoint (MG_MID): −6.35
  Log10TGI mean graph midpoint (MG_MID): −5.51
[6]
  GI50: 3.24 µM
[7]
  GI50: 0.631 µM
Renal cancer cell lines
  GI50: 2.57 µM

## COc1ccccc1N1CCN(CC(=O)Nc2ccc(Cl)cc2C(=O)c2ccccc2Cl)CC1 [Compound 6c, N1-[4-chloro-2-(2-chlorobenzoyl)phenyl]-2-[4-(2-methoxyphenyl)piperazino]acetamide]
[8]
  cytotoxicity against some cancer cell lines: promising cytotoxicity
[3]
  ΔTm after incubation at 37° C. for 0 h: 1.4 °C
  ΔTm after incubation at 37° C. for 18 h: 1.6 °C
  ΔTm after incubation at 37° C. for 36 h: 2.3 °C

## O=C(CN1CCN(CC(=O)Nc2ccc(Cl)cc2C(=O)c2ccccc2Cl)CC1)Nc1ccc(Cl)cc1C(=O)c1ccccc1Cl [Compound 6f, N1-[4-chloro-2-(2-chlorobenzoyl)phenyl]-2-(4-2-[4-chloro-2-(2-chlorobenzoyl)anilino]-2-oxoethylpiperazino)acetamide]
[3]
  ΔTm after incubation at 37° C. for 0 h: 1.3 °C
  ΔTm after incubation at 37° C. for 18 h: 2.1 °C
  ΔTm after incubation at 37° C. for 36 h: 3.0 °C

## COc1cc(/C=C/C(=O)c2ccc(F)cc2)ccc1OCCCN1CCN(CC(=O)Nc2ccc(Cl)cc2C(=O)c2ccccc2Cl)CC1 [Compound 8]
[3]
  ΔTm after incubation at 37° C. for 0 h: 1.5 °C
  ΔTm after incubation at 37° C. for 18 h: 2.3 °C
  ΔTm after incubation at 37° C. for 36 h: 2.4 °C

From patent publication US8394954B2, “Benzophenone hybrids as anticancer agents and processes for the preparation thereof” (Council of Scientific & Industrial Research, priority 2007, dated 2013)
